Test results: PubChem BioAssay AID624076 (Broad Institute, 2012)
Calls of active or inactive are those of the source. No rule for the calls is given here.

Assay: PubChem AID 624076
Conditions: Carna kinase panel, IMAP FP / mobility shift, at 10 µM, stronger effect = higher value

Measured: inhibition

Cc1cnc(-c2cnc(NCCNc3ccc(C#N)cn3)nc2-c2ccc(Cl)cc2Cl)[nH]1
active: BRAF 53.8% | CDK5 51.2% | CDK9 88.1% | CK1g1 85.8% | CLK1 70.5% | GSK3a 99.9% | MELK 53.5% | MLK1 51.4% | PLK1 59.2%
inactive: ABL(E255K) -2.21% | ABL(T315I) 3.27% | AKT2 0.832% | AKT3 0% | ALK(R1275Q) -2.15% | ARG -1.99% | AXL 6.91% | AurB 2.87% | AurC 6.65% | BMPR1A -9.7% | BRAF(V600E) 14% | BRK -3.52% | BRSK1 10.2% | BTK -3.98% | CDC7 -7.36% | CDK3 42.4% | CHK2 4.54% | CK1e 10.4% | CK2a2/b 48.7% | CK1d 23.2% | CLK2 47.6% | COT -1.49% | CRIK 1.36% | CTK -2.12% | CaMK2b 0.457% | CaMK4 6.27% | CaMK1d 2.64% | DAPK1 0.121% | DCAMKL2 4.09% | DLK -12.2% | DYRK1B 20.8% | DYRK2 17.2% | EGFR(L861Q) 1.1% | EML4-ALK -2.55% | EPHA3 -5.65% | EPHA5 -4.24% | EPHA8 -7.66% | EPHB1 0.223% | EPHB4 -0.865% | FGFR1 13.1% | FGFR3(K650E) 12.5% | FGFR3(K650M) 11.8% | FGFR4(N535K) 3.65% | FGFR4(V550L) 7.1% | FGFR4 1.13% | FLT4 40.4% | FMS 9.78% | HER4 -8.68% | HIPK1 15.1% | HIPK3 11% | Haspin 9.76% | IGF1R 0.373% | IKKb 7.11% | IRAK4 -0.123% | IRR 2.61% | JAK2 5.28% | JAK3 18.1% | JNK1 11.5% | JNK2 18.8% | JNK3 16.9% | KIT(T670I) 2.37% | KIT(V560G) 8.71% | KIT 5.43% | LATS2 9.73% | LKB1 16.6% | LOK 4.96% | LTK -0.743% | LYNa 0.071% | MAP2K5 -7.9% | MAP3K1 8.06% | MAP3K3 -21.6% | MAP4K2 12.9% | MARK2 13.3% | MARK4 15.4% | MER 3.47% | MGC42105 6.7% | MINK 4.57% | MLK2 0.179% | MOS 5.27% | MSK1 7.16% | MST2 5.83% | MST4 8.12% | NDR1 2.42% | NEK1 15.9% | NEK2 8.33% | NEK6 2.28% | NEK7 -3.45% | PAK3 14.2% | PAK4 -9.87% | PAK5 7.25% | PASK 8.83% | PBK 3.01% | PDGFRa(V561D) 27% | PEK 23.7% | PGK -2.42% | PHKG1 6.01% | PIM3 -2.3% | PKACg 2.06% | PKCb2 10.5% | PKCd 15.8% | PKCg 8.43% | PKD1 24.8% | PKD2 19.5% | PKD3 40.8% | PKN1 14.8% | PLK4 -13.5% | PRKX 3.31% | RET(S891A) 32.1% | RET(Y791F) 12.8% | ROCK1 0.774% | ROCK2 1.96% | ROS 11.2% | RSK1 19.3% | RSK2 19.9% | RSK4 30.6% | SGK3 0.522% | SIK 2.55% | SLK 43.3% | SRC 2.22% | SRM -1.3% | SRPK1 17.3% | SYK 1.08% | TAK1-TAB1 34.1% | TIE2 4.06% | TNK1 27.1% | TRKA 9.49% | TSSK3 -3.5% | TTK -10.8% | TYK2 -0.177% | WNK2 3.23% | p38d 2.62%
